In patent US20250136946A1, “REAL-TIME CHEMICAL SCREENING METHOD USING LIVER ORGANOIDS FLUORESCENTLY LABELED WITH CYTOCHROME P450 1A1 ENZYME” (priority 2023, published 2025):
Read-outs that look alike come from different tables or passages of the source.

Tests used:
[1] = system: CYP1A1; settings: for mCherry fluorescence intensity at different concentrations: real-time, TCDD positive control
Experimental: The CYP1A1 fluorescently labelled stem cell line-derived hepatic organoids were treated with the selected hazardous chemicals, tert-butylhydroquinone (tBHQ), 1,2-naphtoquinone (1,2-NQ), and 1,4-naphtoquinone (1,4-NQ) to observe the changes in mCherry fluorescence intensity in real-time.

[2] = system: CYP1A1; assay: CYP1A1 mRNA expression level in CYP1A1-mCherry hPSC-derived hepatic organoids; assay type: cell-based, human
[3] = hepatic organoids, real-time fluorescence, 24 hours of treatment

## O=C1C=Cc2ccccc2C1=O [1,2-NQ, 1,2-Naphtoquinone]
[1]; hepatic organoids
  mCherry fluorescence intensity at different concentrations: increased in a concentration-dependent manner

## O=C1C=CC(=O)c2ccccc21 [1,4-NQ, 1,4-Naphtoquinone]
[1]; hepatic organoids
  mCherry fluorescence intensity at different concentrations: increased in a concentration-dependent manner

## Cc1ccc2cc3c(ccc4ccccc43)c3c2c1CC3 [3-MC, 3-methylcholanthrene]
[1]; [3]
  mCherry fluorescence intensity in hepatic organoids: increase

## Cc1ccccc1N=Nc1ccc(NC(=O)c2ccnn2C)c(C)c1 [CH223191]
[1]; hepatic organoids, treated together with TCDD and BaP
  mCherry fluorescence intensity, treated together with AHR agonists: decreased
[1]; hepatic organoids, treated together with tBHQ, 1,2-NQ, 1,4-NQ
  mCherry fluorescence intensity, treated together with three hazardous chemicals: decreased
[2]; treated together with TCDD and BaP
  CYP1A1 gene expression level, treated together with AHR agonists: decreased
[2]; treated together with tBHQ, 1,2-NQ, 1,4-NQ
  CYP1A1 mRNA expression level, treated together with three hazardous chemicals: decrease

## COc1cccc2c1C(=O)c1c(O)c3c(c(O)c1C2=O)C[C@@](O)(C(=O)CO)C[C@@H]3O[C@H]1C[C@H](N)[C@H](O)[C@H](C)O1 [DOX, doxorubicin]
[1]
  mCherry fluorescence intensity in hepatic organoids: increase

## O=Cc1c2c(cc3c1=Nc1ccccc1-3)=Nc1ccccc1-2 [FICZ, 6-formylindolo [3,2-B]carbazole]
[1]; [3]
  mCherry fluorescence intensity in hepatic organoids: increase

## Clc1cc2c(cc1Cl)Oc1cc(Cl)c(Cl)cc1O2 [TCDD, 2,3,7,8-tetrachlorodibenzo-p-dioxin]
[1]; hepatic organoids, 3-hour intervals up to 72 hours after treatment
  mCherry fluorescence intensity, time-lapse imaging: increased in a time-dependent manner
[1]; hepatic organoids, 24 hours after treatment, imaging device
  mCherry fluorescence: increase
[2]; 24 hours after treatment
  CYP1A1 mRNA expression level: increased

## COc1cccc2c1C(=O)c1c(O)c3c(c(O)c1C2=O)C[C@@](O)(C(C)=O)C[C@@H]3O[C@H]1C[C@H](N)[C@H](O)[C@H](C)O1 [daunorubicin]
[1]
  mCherry fluorescence intensity in hepatic organoids: increase

## CC(=O)[C@]1(O)Cc2c(O)c3c(c(O)c2[C@@H](O[C@H]2C[C@H](N)[C@H](O)[C@H](C)O2)C1)C(=O)c1ccccc1C3=O [idarubicin]
[1]
  mCherry fluorescence intensity in hepatic organoids: increase

## Cc1oncc1C(=O)Nc1ccc(C(F)(F)F)cc1 [leflunomide]
[1]
  mCherry fluorescence intensity in hepatic organoids: increase

## CC(C)(C)c1cc(O)ccc1O [tBHQ, tert-Butylhydroquinone]
[1]; hepatic organoids
  mCherry fluorescence intensity at different concentrations: increased in a concentration-dependent manner
